Laboratory results from PubChem BioAssay (NCI).
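Results reflect a 48-hour exposure of cells in 96-well plates to compound at five concentrations. GI50 = concentration required for 50% inhibition of growth. TGI: concentration producing complete growth inhibition.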

Tests used:
Assay in all cases: DTP human tumour cell line panel, 48 h
786-0 renal = tested on: 786-0 renal
A498 renal = tested on: A498 renal
A549 NSCLC = tested on: A549 NSCLC
ACHN renal = tested on: ACHN renal
BT-549 breast = tested on: BT-549 breast
CAKI-1 renal = tested on: CAKI-1 renal
CCRF-CEM leukemia = tested on: CCRF-CEM leukemia
COLO 205 colon = tested on: COLO 205 colon
DU-145 prostate = tested on: DU-145 prostate
HCC-2998 colon = tested on: HCC-2998 colon
HCT-116 colon = tested on: HCT-116 colon
HCT-15 colon = tested on: HCT-15 colon
HL-60(TB) leukemia = tested on: HL-60(TB) leukemia
HOP-62 NSCLC = tested on: HOP-62 NSCLC
HOP-92 NSCLC = tested on: HOP-92 NSCLC
HS 578T breast = tested on: HS 578T breast
HT29 colon = tested on: HT29 colon
IGROV1 ovarian = tested on: IGROV1 ovarian
K-562 leukemia = tested on: K-562 leukemia
KM12 colon = tested on: KM12 colon
LOX IMVI melanoma = tested on: LOX IMVI melanoma
M14 melanoma = tested on: M14 melanoma
MALME-3M melanoma = tested on: MALME-3M melanoma
MCF7 breast = tested on: MCF7 breast
MDA-MB-231 breast = tested on: MDA-MB-231 breast
MDA-MB-435 = tested on: MDA-MB-435
MOLT-4 leukemia = tested on: MOLT-4 leukemia
NCI-H226 lung = tested on: NCI-H226 lung
NCI-H23 lung = tested on: NCI-H23 lung
NCI-H460 lung = tested on: NCI-H460 lung
NCI-H522 lung = tested on: NCI-H522 lung
NCI/ADR-RES ovarian = tested on: NCI/ADR-RES ovarian
OVCAR-3 ovarian = tested on: OVCAR-3 ovarian
OVCAR-4 ovarian = tested on: OVCAR-4 ovarian
OVCAR-5 ovarian = tested on: OVCAR-5 ovarian
OVCAR-8 ovarian = tested on: OVCAR-8 ovarian
PC-3 prostate = tested on: PC-3 prostate
RPMI-8226 leukemia = tested on: RPMI-8226 leukemia
RXF 393 renal = tested on: RXF 393 renal
SF-268 CNS = tested on: SF-268 CNS
SF-539 CNS = tested on: SF-539 CNS
SK-MEL-2 melanoma = tested on: SK-MEL-2 melanoma
SK-MEL-28 melanoma = tested on: SK-MEL-28 melanoma
SK-MEL-5 melanoma = tested on: SK-MEL-5 melanoma
SK-OV-3 ovarian = tested on: SK-OV-3 ovarian
SN12C renal = tested on: SN12C renal
SNB-19 CNS = tested on: SNB-19 CNS
SNB-75 CNS = tested on: SNB-75 CNS
SR leukemia = tested on: SR leukemia
SW-620 colon = tested on: SW-620 colon
T-47D breast = tested on: T-47D breast
TK-10 renal = tested on: TK-10 renal
U251 CNS = tested on: U251 CNS
UACC-257 melanoma = tested on: UACC-257 melanoma
UACC-62 melanoma = tested on: UACC-62 melanoma
UO-31 renal = tested on: UO-31 renal

Question: How did the GI50 (786-0 renal) turn out when N#CCCN1C/C(=C/c2ccccc2)C(=O)/C(=C/c2ccccc2)C1 was run?
Answer: 1.92 µM

Question: What about the TGI (786-0 renal) of the same molecule?
Answer: 4.07 µM

Question: What about the GI50 (A498 renal) of the same molecule?
Answer: 13.4 µM

Question: What about the TGI (A498 renal) of the same molecule?
Answer: 26.8 µM

Question: What about the GI50 (A549 NSCLC) of the same molecule?
Answer: 3.8 µM

Question: What about the TGI (A549 NSCLC) of the same molecule?
Answer: 16.2 µM

Question: And the GI50 (ACHN renal)?
Answer: 1.83 µM

Question: What about the TGI (ACHN renal) of the same molecule?
Answer: 3.4 µM

Question: What about the GI50 (BT-549 breast) of the same molecule?
Answer: 2.14 µM

Question: And the TGI (BT-549 breast)?
Answer: 4.23 µM

Question: And the GI50 (CAKI-1 renal)?
Answer: 3.16 µM

Question: What about the TGI (CAKI-1 renal) of the same molecule?
Answer: 11.1 µM

Question: And the GI50 (CCRF-CEM leukemia)?
Answer: 0.498 µM

Question: What about the TGI (CCRF-CEM leukemia) of the same molecule?
Answer: > 100 µM

Question: And the GI50 (COLO 205 colon)?
Answer: 2.59 µM

Question: And the TGI (COLO 205 colon)?
Answer: 6.42 µM

Question: What about the GI50 (DU-145 prostate) of the same molecule?
Answer: 5.86 µM

Question: And the TGI (DU-145 prostate)?
Answer: 18.1 µM

Question: And the GI50 (HCC-2998 colon)?
Answer: 1.74 µM

Question: And the TGI (HCC-2998 colon)?
Answer: 3.2 µM

Question: And the GI50 (HCT-116 colon)?
Answer: 0.397 µM

Question: What about the TGI (HCT-116 colon) of the same molecule?
Answer: 1.88 µM

Question: What about the GI50 (HCT-15 colon) of the same molecule?
Answer: 1.45 µM

Question: What about the TGI (HCT-15 colon) of the same molecule?
Answer: 3.54 µM

Question: What about the GI50 (HL-60(TB) leukemia) of the same molecule?
Answer: 2.97 µM

Question: And the TGI (HL-60(TB) leukemia)?
Answer: 21.2 µM

Question: And the GI50 (HOP-62 NSCLC)?
Answer: 2.61 µM

Question: What about the TGI (HOP-62 NSCLC) of the same molecule?
Answer: 6.03 µM

Question: What about the GI50 (HOP-92 NSCLC) of the same molecule?
Answer: 12.3 µM

Question: And the TGI (HOP-92 NSCLC)?
Answer: 29.4 µM

Question: And the GI50 (HS 578T breast)?
Answer: 2.96 µM

Question: And the TGI (HS 578T breast)?
Answer: 13.3 µM

Question: What about the GI50 (HT29 colon) of the same molecule?
Answer: 1.81 µM

Question: And the TGI (HT29 colon)?
Answer: 3.91 µM

Question: What about the GI50 (IGROV1 ovarian) of the same molecule?
Answer: 3.66 µM

Question: What about the TGI (IGROV1 ovarian) of the same molecule?
Answer: 12.7 µM

Question: And the GI50 (K-562 leukemia)?
Answer: 0.744 µM

Question: And the TGI (K-562 leukemia)?
Answer: > 100 µM

Question: And the GI50 (KM12 colon)?
Answer: 1.59 µM

Question: What about the TGI (KM12 colon) of the same molecule?
Answer: 3.12 µM

Question: And the GI50 (LOX IMVI melanoma)?
Answer: 1.09 µM

Question: What about the TGI (LOX IMVI melanoma) of the same molecule?
Answer: 2.47 µM

Question: And the GI50 (M14 melanoma)?
Answer: 2.12 µM

Question: And the TGI (M14 melanoma)?
Answer: 4.63 µM

Question: What about the GI50 (MALME-3M melanoma) of the same molecule?
Answer: 2.91 µM

Question: What about the TGI (MALME-3M melanoma) of the same molecule?
Answer: 6.69 µM

Question: And the GI50 (MCF7 breast)?
Answer: 0.395 µM

Question: And the TGI (MCF7 breast)?
Answer: 2.35 µM

Question: What about the GI50 (MDA-MB-231 breast) of the same molecule?
Answer: 2.75 µM

Question: And the TGI (MDA-MB-231 breast)?
Answer: 7.06 µM

Question: What about the GI50 (MDA-MB-435) of the same molecule?
Answer: 2.13 µM

Question: What about the TGI (MDA-MB-435) of the same molecule?
Answer: 5.89 µM

Question: And the GI50 (MOLT-4 leukemia)?
Answer: 2.95 µM

Question: What about the TGI (MOLT-4 leukemia) of the same molecule?
Answer: 17.9 µM

Question: What about the GI50 (NCI-H226 lung) of the same molecule?
Answer: 18.1 µM

Question: What about the TGI (NCI-H226 lung) of the same molecule?
Answer: 50.3 µM

Question: What about the GI50 (NCI-H23 lung) of the same molecule?
Answer: 3.46 µM

Question: And the TGI (NCI-H23 lung)?
Answer: 12.6 µM

Question: And the GI50 (NCI-H460 lung)?
Answer: 1.92 µM

Question: What about the TGI (NCI-H460 lung) of the same molecule?
Answer: 3.91 µM

Question: And the GI50 (NCI-H522 lung)?
Answer: 1.9 µM

Question: And the TGI (NCI-H522 lung)?
Answer: 3.56 µM

Question: What about the GI50 (NCI/ADR-RES ovarian) of the same molecule?
Answer: 3.44 µM

Question: And the TGI (NCI/ADR-RES ovarian)?
Answer: 31.7 µM

Question: What about the GI50 (OVCAR-3 ovarian) of the same molecule?
Answer: 2.63 µM

Question: What about the TGI (OVCAR-3 ovarian) of the same molecule?
Answer: 6.04 µM

Question: What about the GI50 (OVCAR-4 ovarian) of the same molecule?
Answer: 3.1 µM

Question: And the TGI (OVCAR-4 ovarian)?
Answer: 13.1 µM

Question: What about the GI50 (OVCAR-5 ovarian) of the same molecule?
Answer: 2.55 µM

Question: What about the TGI (OVCAR-5 ovarian) of the same molecule?
Answer: 6.6 µM

Question: What about the GI50 (OVCAR-8 ovarian) of the same molecule?
Answer: 2.23 µM

Question: And the TGI (OVCAR-8 ovarian)?
Answer: 6.03 µM

Question: And the GI50 (PC-3 prostate)?
Answer: 2.6 µM

Question: And the TGI (PC-3 prostate)?
Answer: 7.9 µM

Question: What about the GI50 (RPMI-8226 leukemia) of the same molecule?
Answer: 0.295 µM

Question: What about the TGI (RPMI-8226 leukemia) of the same molecule?
Answer: 1.16 µM

Question: What about the GI50 (RXF 393 renal) of the same molecule?
Answer: 1.66 µM

Question: What about the TGI (RXF 393 renal) of the same molecule?
Answer: 3.38 µM

Question: What about the GI50 (SF-268 CNS) of the same molecule?
Answer: 2.94 µM

Question: And the TGI (SF-268 CNS)?
Answer: 8.88 µM

Question: And the GI50 (SF-539 CNS)?
Answer: 2.2 µM

Question: And the TGI (SF-539 CNS)?
Answer: 4.98 µM

Question: And the GI50 (SK-MEL-2 melanoma)?
Answer: 2.62 µM

Question: And the TGI (SK-MEL-2 melanoma)?
Answer: 5.87 µM

Question: What about the GI50 (SK-MEL-28 melanoma) of the same molecule?
Answer: 1.79 µM

Question: And the TGI (SK-MEL-28 melanoma)?
Answer: 3.54 µM

Question: And the GI50 (SK-MEL-5 melanoma)?
Answer: 1.65 µM

Question: And the TGI (SK-MEL-5 melanoma)?
Answer: 3.07 µM

Question: And the GI50 (SK-OV-3 ovarian)?
Answer: 4.09 µM

Question: What about the TGI (SK-OV-3 ovarian) of the same molecule?
Answer: 14.2 µM

Question: What about the GI50 (SN12C renal) of the same molecule?
Answer: 2.15 µM

Question: What about the TGI (SN12C renal) of the same molecule?
Answer: 4.79 µM

Question: And the GI50 (SNB-19 CNS)?
Answer: 3.19 µM

Question: And the TGI (SNB-19 CNS)?
Answer: 13.6 µM

Question: And the GI50 (SNB-75 CNS)?
Answer: 7.43 µM

Question: What about the TGI (SNB-75 CNS) of the same molecule?
Answer: 21.3 µM

Question: And the GI50 (SR leukemia)?
Answer: 0.289 µM

Question: And the TGI (SR leukemia)?
Answer: > 100 µM

Question: What about the GI50 (SW-620 colon) of the same molecule?
Answer: 0.647 µM

Question: And the TGI (SW-620 colon)?
Answer: 2.47 µM

Question: And the GI50 (T-47D breast)?
Answer: 7.43 µM

Question: What about the TGI (T-47D breast) of the same molecule?
Answer: 21.4 µM

Question: And the GI50 (TK-10 renal)?
Answer: 2.97 µM

Question: And the TGI (TK-10 renal)?
Answer: 7.76 µM

Question: What about the GI50 (U251 CNS) of the same molecule?
Answer: 1.48 µM

Question: And the TGI (U251 CNS)?
Answer: 3.12 µM

Question: What about the GI50 (UACC-257 melanoma) of the same molecule?
Answer: 1.91 µM

Question: And the TGI (UACC-257 melanoma)?
Answer: 4.64 µM

Question: What about the GI50 (UACC-62 melanoma) of the same molecule?
Answer: 1.73 µM

Question: And the TGI (UACC-62 melanoma)?
Answer: 3.44 µM

Question: What about the GI50 (UO-31 renal) of the same molecule?
Answer: 2.01 µM

Question: And the TGI (UO-31 renal)?
Answer: 6.08 µM
